Laboratory results: ChEMBL document CHEMBL3301562, “MMV Box screening against Plasmodium falciparum protein kinases and aminoacyl tRNA synthetases”

Key:
Assay type in all cases: functional
Proline--tRNA ligase = molecular target: T1, Proline--tRNA ligase (Plasmodium falciparum (isolate 3D7), UniProt Q8I5R7); test: MMV: ProRS recombinant Plasmodium falciparum Prolyl-tRNA-synthetase, assay with yeast tRNA, ATP, and proline and 3 uM MMV malaria box compound, assay read out with kinase glo as % inhibition.
T1 sequence (Q8I5R7 whole entry): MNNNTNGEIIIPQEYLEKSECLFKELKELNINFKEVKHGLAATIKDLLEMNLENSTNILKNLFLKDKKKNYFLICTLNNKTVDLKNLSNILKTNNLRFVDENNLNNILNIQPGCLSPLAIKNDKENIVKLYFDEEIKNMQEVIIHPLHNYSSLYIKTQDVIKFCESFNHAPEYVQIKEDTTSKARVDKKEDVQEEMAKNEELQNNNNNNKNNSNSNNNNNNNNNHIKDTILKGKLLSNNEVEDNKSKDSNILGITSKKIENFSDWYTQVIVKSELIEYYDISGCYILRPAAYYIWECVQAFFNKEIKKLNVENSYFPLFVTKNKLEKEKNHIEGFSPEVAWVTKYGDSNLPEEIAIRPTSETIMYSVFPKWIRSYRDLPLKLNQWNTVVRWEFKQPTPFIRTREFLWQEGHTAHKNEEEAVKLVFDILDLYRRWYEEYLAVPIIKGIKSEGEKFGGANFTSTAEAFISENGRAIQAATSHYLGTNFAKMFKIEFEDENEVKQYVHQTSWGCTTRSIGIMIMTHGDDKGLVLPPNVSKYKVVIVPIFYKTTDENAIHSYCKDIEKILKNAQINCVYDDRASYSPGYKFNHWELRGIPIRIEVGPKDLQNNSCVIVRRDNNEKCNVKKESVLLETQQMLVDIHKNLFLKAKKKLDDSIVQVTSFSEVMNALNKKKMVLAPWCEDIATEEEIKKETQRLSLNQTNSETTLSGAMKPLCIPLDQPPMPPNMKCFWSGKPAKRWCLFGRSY

[1] = molecular target: T2, Mitogen-activated protein kinase (Plasmodium falciparum, UniProt Q25917); test: Final concentrations were 1 uM ATP, 0.5 mM DTT, 1 mM MgCl2, 0.5 mg/mL BSA, and 10 ug/ml MAP2 in a buffer of 50 mM HEPES (pH 7.0). 0.5 mg/mL histone III-S served as the substrate (13); 100 uM AMP-PNP, an ATP analog, was used as a control inhibitor. Incubation time was 4 hours.
T2 sequence (Q25917 whole entry): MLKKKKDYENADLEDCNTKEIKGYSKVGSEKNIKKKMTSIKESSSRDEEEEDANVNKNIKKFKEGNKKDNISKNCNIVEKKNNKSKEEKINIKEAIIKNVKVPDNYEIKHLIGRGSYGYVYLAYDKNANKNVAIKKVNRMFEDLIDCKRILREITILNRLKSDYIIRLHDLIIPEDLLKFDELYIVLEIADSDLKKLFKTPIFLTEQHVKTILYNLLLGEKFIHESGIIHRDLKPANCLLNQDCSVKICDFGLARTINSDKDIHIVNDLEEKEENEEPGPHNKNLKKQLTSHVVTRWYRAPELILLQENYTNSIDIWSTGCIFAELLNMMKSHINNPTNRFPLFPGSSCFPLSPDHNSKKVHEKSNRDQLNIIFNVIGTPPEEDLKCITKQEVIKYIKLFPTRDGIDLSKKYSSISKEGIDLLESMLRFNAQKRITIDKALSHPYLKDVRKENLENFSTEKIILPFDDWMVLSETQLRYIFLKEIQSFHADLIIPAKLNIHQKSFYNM

Lysine--tRNA ligase = Lysine--tRNA ligase (Plasmodium falciparum (isolate 3D7), UniProt Q8IDJ8); test: MMV: KRS recombinant Plasmodium falciparum Lysyl-tRNA-synthetase, assay with yeast tRNA, ATP, and lysine and 3 uM MMV malaria box compound, assay read out with kinase glo as % inhibition.
[2] = molecular target: T3, Cdk-related protein kinase 6 (Plasmodium falciparum, UniProt O77239); test: Final concentrations were 1.5 uM ATP, 5 mM MnCl2, and 15 ug/ml PK6 in a buffer of 100 mM Tris-HCl (pH 7.5). 50 ug/mL MBP was provided as the substrate; 10 uM staurosporine was used as a control inhibitor. Incubation time was 3 hours and 40 minutes.The catalytic activity of each kinase was considered proportional to ATP consumed, as determined from measurements of residual [ATP] with the luciferase-based reagent Kinase-Glo (Promega) following incubation. Luminescence (proportional to residual [ATP]) was measured on the plate readers FLx800 (BioTek Instruments, Winooski, VT, USA) and MicroBeta2.
T3 sequence (O77239 whole entry): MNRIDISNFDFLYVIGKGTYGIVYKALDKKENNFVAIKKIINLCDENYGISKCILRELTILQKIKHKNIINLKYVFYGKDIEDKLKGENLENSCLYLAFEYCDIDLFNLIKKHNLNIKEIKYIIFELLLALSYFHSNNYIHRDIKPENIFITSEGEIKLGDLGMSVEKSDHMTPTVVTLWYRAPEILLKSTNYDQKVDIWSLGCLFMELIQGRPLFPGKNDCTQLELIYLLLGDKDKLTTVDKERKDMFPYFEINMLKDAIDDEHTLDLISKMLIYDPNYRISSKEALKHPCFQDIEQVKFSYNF

[3] = molecular target: Calcium-dependent protein kinase 1 (Plasmodium falciparum, UniProt P62344); test: MMV: CDPK1 Protein kinase inhibition assay using recombinant PfCDPK1, syntide 2 peptide substrate, ATP and KinaseGlo to measure % inhibition at 1 uM MMV box compound.
[4] = molecular target: T4, Putative uncharacterized protein pk7 (Plasmodium falciparum, UniProt O96214); test: Final concentrations were 1 uM ATP, 2 mM DTT, 20 mM MgCl2, 2 mM MnCl2, 0.01% BSA, and 6 ug/ml PK7, in a buffer of 20 mM Tris-HCl (pH 7.5). The enzyme itself was the only substrate present (since autophosphorylation occurs); 100 uM 1NA-PP1 was used as a control inhibitor. Incubation time was 3 hours.
T4 sequence (O96214 whole entry): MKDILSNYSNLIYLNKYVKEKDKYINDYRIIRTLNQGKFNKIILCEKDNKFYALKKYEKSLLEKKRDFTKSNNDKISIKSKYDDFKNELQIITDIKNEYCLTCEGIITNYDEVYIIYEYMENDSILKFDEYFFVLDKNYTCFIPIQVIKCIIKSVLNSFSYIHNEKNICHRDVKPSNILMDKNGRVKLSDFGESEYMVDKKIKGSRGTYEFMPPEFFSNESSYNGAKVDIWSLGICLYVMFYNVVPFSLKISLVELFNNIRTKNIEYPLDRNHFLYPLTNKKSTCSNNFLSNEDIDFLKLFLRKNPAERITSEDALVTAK

[5] = molecular target: T5, Calcium-dependent protein kinase 4 (Plasmodium falciparum (isolate 3D7), UniProt Q8IBS5); test: MMV: CDPK4 Protein kinase inhibition assay using recombinant PfCDPK4, syntide2 peptide substrate, ATP and KinaseGlo to measure % inhibition at 1 uM MMV box compound.
T5 sequence (Q8IBS5 whole entry): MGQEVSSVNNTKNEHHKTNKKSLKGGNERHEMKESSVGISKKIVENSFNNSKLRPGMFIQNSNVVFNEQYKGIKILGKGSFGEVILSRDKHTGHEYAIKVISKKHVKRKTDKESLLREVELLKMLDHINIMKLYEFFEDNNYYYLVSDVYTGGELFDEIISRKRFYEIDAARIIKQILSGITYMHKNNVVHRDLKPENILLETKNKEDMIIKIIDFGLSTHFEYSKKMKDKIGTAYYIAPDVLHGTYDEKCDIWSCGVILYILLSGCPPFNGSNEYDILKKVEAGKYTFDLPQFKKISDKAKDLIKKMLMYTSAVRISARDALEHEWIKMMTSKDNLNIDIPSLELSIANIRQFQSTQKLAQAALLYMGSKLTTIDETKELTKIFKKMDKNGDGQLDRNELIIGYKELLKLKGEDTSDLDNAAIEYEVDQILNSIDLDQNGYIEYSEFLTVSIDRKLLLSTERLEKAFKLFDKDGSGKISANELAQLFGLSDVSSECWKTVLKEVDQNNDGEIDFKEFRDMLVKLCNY

Chain of Lysine--tRNA ligase (Q8IDJ8 whole entry): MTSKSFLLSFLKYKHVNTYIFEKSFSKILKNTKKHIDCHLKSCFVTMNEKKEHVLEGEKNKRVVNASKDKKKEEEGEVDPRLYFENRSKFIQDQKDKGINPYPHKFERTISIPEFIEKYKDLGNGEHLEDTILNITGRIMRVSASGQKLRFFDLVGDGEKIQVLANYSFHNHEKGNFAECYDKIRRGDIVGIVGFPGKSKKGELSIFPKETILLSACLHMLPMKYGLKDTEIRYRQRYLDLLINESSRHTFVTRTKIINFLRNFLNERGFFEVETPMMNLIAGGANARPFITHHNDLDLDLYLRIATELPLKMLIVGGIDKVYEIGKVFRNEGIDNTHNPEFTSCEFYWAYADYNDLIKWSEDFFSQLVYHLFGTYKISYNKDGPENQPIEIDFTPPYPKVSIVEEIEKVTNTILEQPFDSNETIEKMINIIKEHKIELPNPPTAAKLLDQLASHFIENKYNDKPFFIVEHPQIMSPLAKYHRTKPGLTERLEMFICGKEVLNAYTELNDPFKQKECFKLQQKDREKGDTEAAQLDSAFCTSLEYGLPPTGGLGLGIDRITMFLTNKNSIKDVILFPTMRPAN
Chain of Calcium-dependent protein kinase 1 (P62344 whole entry): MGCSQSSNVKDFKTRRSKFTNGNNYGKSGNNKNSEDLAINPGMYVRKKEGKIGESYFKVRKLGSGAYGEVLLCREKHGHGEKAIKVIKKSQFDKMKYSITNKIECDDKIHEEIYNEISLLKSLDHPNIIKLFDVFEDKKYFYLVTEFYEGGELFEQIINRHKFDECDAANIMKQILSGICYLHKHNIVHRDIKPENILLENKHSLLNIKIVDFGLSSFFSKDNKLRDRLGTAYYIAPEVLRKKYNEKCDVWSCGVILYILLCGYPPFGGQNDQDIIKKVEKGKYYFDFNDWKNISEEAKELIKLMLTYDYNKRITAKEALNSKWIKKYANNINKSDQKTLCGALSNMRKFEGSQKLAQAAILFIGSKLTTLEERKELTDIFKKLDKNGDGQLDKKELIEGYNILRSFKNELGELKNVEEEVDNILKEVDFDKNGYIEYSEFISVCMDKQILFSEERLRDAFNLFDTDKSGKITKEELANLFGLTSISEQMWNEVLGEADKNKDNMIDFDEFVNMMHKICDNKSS

Compound | IC50 (Proline--tRNA ligase) | IC50 [1] | IC50 (Lysine--tRNA ligase) | IC50 [2] | IC50 [3] | IC50 [4] | IC50 [5]
C=CC12CCN(CC1)C(C(O)c1ccnc3ccc(OC)cc13)C2 (configuration not stated) | > 2500 nM | > 1000 nM | > 2500 nM | > 1000 nM | > 1000 nM | > 1000 nM | > 1000 nM
COc1ccc(C(=O)Nc2ccc3nc(N4CCCCC4)cc(C)c3c2)cc1OC | > 2500 nM | > 1000 nM | > 2500 nM | > 1000 nM | > 1000 nM | > 1000 nM | > 1000 nM
O=C(NC1CCCC1)c1ccc(N2CCC(NCc3cccc(C(F)(F)F)c3)CC2)cc1 | > 2500 nM | > 1000 nM | > 2500 nM | > 1000 nM | > 1000 nM | > 1000 nM | > 1000 nM
COc1ccc(C=C2SC(Nc3ccc(F)cc3)=NC2=O)c(OC)c1 | > 2500 nM | > 1000 nM | > 2500 nM | > 1000 nM | > 1000 nM | > 1000 nM | > 1000 nM
COc1cccc(C=Cc2nc(=O)c3ccccc3o2)c1OC | > 2500 nM | > 1000 nM | > 2500 nM | > 1000 nM | > 1000 nM | > 1000 nM | > 1000 nM
CCOc1ccc(CN2CCN(CC(O)COc3ccc(OCC(O)CN4CCN(Cc5ccc(OCC)cc5)CC4)cc3)CC2)cc1 (configuration not stated) | > 2500 nM | > 1000 nM | > 2500 nM | > 1000 nM | > 1000 nM | > 1000 nM | > 1000 nM
COc1ccc(C(=O)NC(c2ccccc2Cl)c2cc(Cl)c3cccnc3c2O)cc1 (configuration not stated) | > 2500 nM | > 1000 nM | > 2500 nM | > 1000 nM | > 1000 nM | > 1000 nM | > 1000 nM
CCC(c1ccccc1)c1nn2c(-c3cccs3)nnc2s1 (configuration not stated) | > 2500 nM | > 1000 nM | > 2500 nM | > 1000 nM | > 1000 nM | > 1000 nM | > 1000 nM
Cc1ccc(-c2cc(C(=O)Nc3ccc(S(=O)(=O)N4CCCCC4)cc3)[nH]n2)c(O)c1 | > 2500 nM | > 1000 nM | > 2500 nM | > 1000 nM | > 1000 nM | > 1000 nM | > 1000 nM
CC1CC(C)CN(C(=O)c2ccc(Cl)cc2Cl)C1 (configuration not stated) | > 2500 nM | > 1000 nM | > 2500 nM | > 1000 nM | > 1000 nM | > 1000 nM | > 1000 nM
CCOc1ccc(Nc2c3ccccc3nc3ccccc23)cc1 | > 2500 nM | > 1000 nM | > 2500 nM | > 1000 nM | > 1000 nM | > 1000 nM | > 1000 nM
